Laboratory results published in US20160022751A1, “NOVEL COMPOSITION FOR TREATING ALZHEIMER'S DISEASE AND IMPROVING COGNITIVE FUNCTION OF ALZHEIMER'S PATIENTS” (GANGNEUNG-WONJU NATIONAL UNIVERSITY INDUSTRY ACADEMY …, priority 2014, published 2016).

Assays:
IDE = IDE mRNA expression in HMO6 human microglial cells (qPCR); format: cell-based
Description: (§1) HMO6 human microglial cell line was kindly provided by Dr. SU Kim (Chung-Ang University, Korea). HMO6 cells were grown in Dulbecco's Modified Eagle's Medium (DMEM) (Hyclone, USA) supplemented with 10% fetal bovine serum, 100 U/ml penicillin, and 100 μg/ml streptomycin (Invitrogen, USA). Cultures were maintained under 5% CO2 at 37° C. in tissue culture flasks. Cells were grown to >90% confluency and subjected to no more than 20 cell passages. Medium was changed every 2-3 days. Subconfluent cells were harvested and seeded at a density of 5×10^5 cells or 5×10^6 cells in poly-L-lysine-coated 35-mm or 60-mm culture plates. After 24 h of plating, the medium was replaced with serum-free DMEM, washed once with phosphate buffered saline (PBS), and treated with Rg3 or Aβ42.
(§2) Total RNA extracts from HMO6 cells or perfused brain tissue were prepared using the Trizol method (Invitrogen). cDNA was synthesized from RNA by reverse transcription of 1 μg total RNA using the Improm-II reverse transcription system (Promega, Wis., USA) and oligo dT primers in a total volume of 20 μl. PCR amplification was performed using the primers listed in Table 1 (Bioneer, Korea). qPCR reactions were run on a Rotor-Gene 6000 (Corbett Research, Sydney, Australia) using a SensiMix™ SYBR Hi-ROX Kit (Bioline, UK) in 20 μl reaction mixtures. Each real-time-PCR master mix contained 10 μl 2× enzyme master mix, 7 μl RNase free water, 1 μl of each primer (10 pM each), and 1 μl diluted template. The PCR was performed with an initial pre-incubation step for 15 min at 95° C., followed by 45 cycles of 95° C. for 15 s, annealing at 52° C. for 15 s, and extension at 72° C. for 10 s. […] Relative sample expression levels were calculated using Rotor-Gene 6000 Series Software 1.7 and were expressed relative to β-actin for mice or glyceraldehyde 3-phosphate dehydrogenase for HMO6 cells and corrected for between-run variability. Data for the experimental samples are expressed as a percentage of the internal control gene. […]

SRA = experiment: In vivo SRA mRNA expression in brain tissues (RT-PCR); details: mice administrated with Rg3 (FIG. 24A)
Description: as §2

NEP = NEP mRNA expression in HMO6 human microglial cells (qPCR); format: cell-based
Description: as §1, with “After 24 h of plating, the medium was replaced with serum-free DMEM, washed once with phosphate buffered saline (PBS), and treated with Rg3 or Aβ42.” left out
Total RNA extracts from HMO6 cells or perfused brain tissue were prepared using the Trizol method (Invitrogen). cDNA was synthesized from RNA by reverse transcription of 1 μg total RNA using the Improm-II reverse transcription system (Promega, Wis., USA) and oligo dT primers in a total volume of 20 μl. […] Relative sample expression levels were calculated using Rotor-Gene 6000 Series Software 1.7 and were expressed relative to β-actin for mice or glyceraldehyde 3-phosphate dehydrogenase for HMO6 cells and corrected for between-run variability. Data for the experimental samples are expressed as a percentage of the internal control gene. […]

[1] = Rg3-treated HMO6 cells (FIG. 14)

CC(C)=CCC[C@](C)(O)[C@H]1CC[C@]2(C)[C@@H]1[C@H](O)C[C@@H]1[C@@]3(C)CC[C@H](O[C@@H]4O[C@H](CO)[C@@H](O)[C@H](O)[C@H]4O[C@@H]4O[C@H](CO)[C@@H](O)[C@H](O)[C@H]4O)C(C)(C)[C@@H]3CC[C@]12C [ginsenoside Rg3]
IDE mRNA (IDE; HMO6 cells, Aβ42 (5 μM) and/or Rg3 (2.5 or 5 μg/ml), 24 h (FIG. 15E)): increased significantly
IDE expression versus untreated control group (IDE; [1]): about six-fold higher
IDE mRNA expression (IDE; [1]): dose-dependently increased
expression of SRA mRNA in brain tissues (SRA): increased
NEP mRNA (NEP; HMO6 cells, Aβ42 (5 μM) and/or Rg3 (2.5 or 5 μg/ml), 24 h (FIG. 15D)): increased significantly
NEP mRNA expression (NEP; [1]): dose-dependently increased
